Laboratory results: ChEMBL document CHEMBL5512646, “Synthesis, kinase inhibition and anti-leukemic activities of diversely substituted indolopyrazolocarbazoles” (Eur J Med Chem, 2024)

Tests used:
MOLM-13 = test: Cytotoxicity against human MOLM-13 cells assessed as induction of cell death incubated for 24 hrs by WST-1 assay; details: MOLM-13, 24 h
HCT-116 = test: Cytotoxicity against human HCT-116 cells assessed as inhibition of cell growth incubated for 24 hrs by MTT assay; format: functional, cell-based; details: HCT-116, 24 h
[1] = target: Serine/threonine-protein kinase pim-2 (Homo sapiens, UniProt Q9P1W9); test: Inhibition of PIM-2 (unknown origin)
Serine/threonine-protein kinase pim-2, sequence (Q9P1W9 whole entry): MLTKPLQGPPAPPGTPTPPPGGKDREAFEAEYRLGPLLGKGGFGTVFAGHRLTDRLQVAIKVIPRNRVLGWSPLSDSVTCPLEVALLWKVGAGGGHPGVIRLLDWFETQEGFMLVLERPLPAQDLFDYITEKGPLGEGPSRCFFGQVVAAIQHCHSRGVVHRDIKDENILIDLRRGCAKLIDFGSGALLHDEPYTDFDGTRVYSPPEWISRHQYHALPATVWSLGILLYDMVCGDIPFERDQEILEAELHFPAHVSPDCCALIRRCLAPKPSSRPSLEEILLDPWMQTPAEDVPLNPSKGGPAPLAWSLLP

[2] = target: Serine/threonine-protein kinase N2 (Homo sapiens, UniProt Q16513); test: Inhibition of human PRK2 using ISDELMDATFADQEAKKK as substrate in presence of ATP
Serine/threonine-protein kinase N2, sequence (Q16513 whole entry): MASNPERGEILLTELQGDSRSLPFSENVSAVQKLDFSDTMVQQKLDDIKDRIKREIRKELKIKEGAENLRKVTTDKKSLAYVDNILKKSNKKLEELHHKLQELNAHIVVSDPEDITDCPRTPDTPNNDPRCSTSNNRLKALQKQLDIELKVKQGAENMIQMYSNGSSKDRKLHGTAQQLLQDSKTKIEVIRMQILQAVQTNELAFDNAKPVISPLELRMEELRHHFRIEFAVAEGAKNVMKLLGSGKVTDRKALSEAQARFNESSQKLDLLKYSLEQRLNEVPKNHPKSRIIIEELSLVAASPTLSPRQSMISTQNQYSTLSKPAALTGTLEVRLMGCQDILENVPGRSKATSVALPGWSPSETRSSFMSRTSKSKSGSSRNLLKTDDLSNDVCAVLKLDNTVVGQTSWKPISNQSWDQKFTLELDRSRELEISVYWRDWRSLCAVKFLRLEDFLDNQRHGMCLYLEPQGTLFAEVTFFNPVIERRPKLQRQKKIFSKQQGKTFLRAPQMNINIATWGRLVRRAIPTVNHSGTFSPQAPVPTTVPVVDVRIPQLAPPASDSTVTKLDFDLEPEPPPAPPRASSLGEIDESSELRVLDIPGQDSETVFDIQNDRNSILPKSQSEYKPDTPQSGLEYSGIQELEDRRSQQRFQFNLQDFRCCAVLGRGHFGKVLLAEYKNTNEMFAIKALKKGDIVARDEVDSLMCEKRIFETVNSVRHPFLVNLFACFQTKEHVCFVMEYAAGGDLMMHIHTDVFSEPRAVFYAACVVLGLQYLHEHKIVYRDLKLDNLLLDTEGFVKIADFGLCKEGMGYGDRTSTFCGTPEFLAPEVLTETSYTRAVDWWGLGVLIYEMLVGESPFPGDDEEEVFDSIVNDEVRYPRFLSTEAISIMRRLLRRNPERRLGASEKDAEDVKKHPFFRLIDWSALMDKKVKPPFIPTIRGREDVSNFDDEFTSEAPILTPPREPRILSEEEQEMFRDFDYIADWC

[3] = target: 5'-AMP-activated protein kinase catalytic subunit alpha-2 (Homo sapiens, UniProt P54646); test: Inhibition of human AMPK using HMRSAMSGLHLVKRR as substrate in presence of ATP
5'-AMP-activated protein kinase catalytic subunit alpha-2, sequence (P54646 whole entry): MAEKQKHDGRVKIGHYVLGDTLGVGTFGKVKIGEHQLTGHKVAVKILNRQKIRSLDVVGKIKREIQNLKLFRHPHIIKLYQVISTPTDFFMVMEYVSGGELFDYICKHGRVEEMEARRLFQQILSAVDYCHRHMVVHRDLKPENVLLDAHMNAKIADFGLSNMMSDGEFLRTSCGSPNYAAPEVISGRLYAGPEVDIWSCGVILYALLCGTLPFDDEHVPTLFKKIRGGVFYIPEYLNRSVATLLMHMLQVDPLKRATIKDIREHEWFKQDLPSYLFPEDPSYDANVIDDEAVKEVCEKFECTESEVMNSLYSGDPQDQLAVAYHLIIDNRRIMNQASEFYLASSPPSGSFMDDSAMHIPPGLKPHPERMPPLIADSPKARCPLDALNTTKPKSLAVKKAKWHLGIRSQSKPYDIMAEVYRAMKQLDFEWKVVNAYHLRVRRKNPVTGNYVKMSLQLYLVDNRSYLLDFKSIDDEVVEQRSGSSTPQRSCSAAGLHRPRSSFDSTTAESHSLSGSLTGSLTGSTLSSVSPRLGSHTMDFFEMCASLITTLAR

[4] = target: MAP/microtubule affinity-regulating kinase 3 (Homo sapiens, UniProt P27448); test: Inhibition of human MARK3 using ATPKKLNRTLSVA as substrate in presence of ATP
MAP/microtubule affinity-regulating kinase 3, sequence (P27448 whole entry): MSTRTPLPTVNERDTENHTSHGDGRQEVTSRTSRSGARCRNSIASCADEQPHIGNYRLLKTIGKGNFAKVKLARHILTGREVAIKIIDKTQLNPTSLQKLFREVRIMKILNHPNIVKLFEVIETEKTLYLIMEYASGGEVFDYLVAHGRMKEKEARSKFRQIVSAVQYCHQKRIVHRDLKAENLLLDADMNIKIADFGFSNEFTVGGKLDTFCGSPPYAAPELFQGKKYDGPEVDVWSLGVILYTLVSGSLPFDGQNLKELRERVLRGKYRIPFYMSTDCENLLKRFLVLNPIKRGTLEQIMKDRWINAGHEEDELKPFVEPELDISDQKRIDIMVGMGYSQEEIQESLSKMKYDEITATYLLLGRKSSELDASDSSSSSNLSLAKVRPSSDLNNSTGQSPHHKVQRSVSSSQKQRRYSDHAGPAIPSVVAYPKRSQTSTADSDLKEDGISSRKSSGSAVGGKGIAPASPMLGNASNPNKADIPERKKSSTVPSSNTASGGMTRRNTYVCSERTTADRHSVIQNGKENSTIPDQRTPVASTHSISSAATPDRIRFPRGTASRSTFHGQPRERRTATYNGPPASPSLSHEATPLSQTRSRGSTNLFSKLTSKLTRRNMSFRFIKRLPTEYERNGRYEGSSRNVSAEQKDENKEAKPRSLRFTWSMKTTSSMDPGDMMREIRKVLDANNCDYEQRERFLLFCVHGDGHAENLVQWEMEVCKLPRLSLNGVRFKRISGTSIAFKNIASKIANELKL

[5] = target: Glycogen synthase kinase-3 beta (Homo sapiens, UniProt P49841); test: Inhibition of human GSK3beta using Poly Glut Tyr as substrate in presence of ATP
Glycogen synthase kinase-3 beta, sequence (P49841 whole entry): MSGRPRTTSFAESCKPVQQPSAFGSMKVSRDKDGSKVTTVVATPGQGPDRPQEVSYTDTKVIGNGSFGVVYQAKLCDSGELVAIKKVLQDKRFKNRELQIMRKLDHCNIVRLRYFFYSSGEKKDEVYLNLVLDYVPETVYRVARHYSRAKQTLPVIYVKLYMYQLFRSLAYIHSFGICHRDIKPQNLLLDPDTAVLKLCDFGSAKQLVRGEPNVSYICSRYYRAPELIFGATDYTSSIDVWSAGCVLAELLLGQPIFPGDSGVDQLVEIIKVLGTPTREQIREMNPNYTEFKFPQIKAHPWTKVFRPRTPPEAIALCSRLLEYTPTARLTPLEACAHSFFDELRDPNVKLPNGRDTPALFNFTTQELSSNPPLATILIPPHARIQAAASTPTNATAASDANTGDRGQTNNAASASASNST

[6] = target: T1, Tyrosine-protein kinase JAK3 (Homo sapiens, UniProt P52333); test: Inhibition of human JAK3 using MBP as substrate in presence of ATP
T1 sequence (P52333 whole entry): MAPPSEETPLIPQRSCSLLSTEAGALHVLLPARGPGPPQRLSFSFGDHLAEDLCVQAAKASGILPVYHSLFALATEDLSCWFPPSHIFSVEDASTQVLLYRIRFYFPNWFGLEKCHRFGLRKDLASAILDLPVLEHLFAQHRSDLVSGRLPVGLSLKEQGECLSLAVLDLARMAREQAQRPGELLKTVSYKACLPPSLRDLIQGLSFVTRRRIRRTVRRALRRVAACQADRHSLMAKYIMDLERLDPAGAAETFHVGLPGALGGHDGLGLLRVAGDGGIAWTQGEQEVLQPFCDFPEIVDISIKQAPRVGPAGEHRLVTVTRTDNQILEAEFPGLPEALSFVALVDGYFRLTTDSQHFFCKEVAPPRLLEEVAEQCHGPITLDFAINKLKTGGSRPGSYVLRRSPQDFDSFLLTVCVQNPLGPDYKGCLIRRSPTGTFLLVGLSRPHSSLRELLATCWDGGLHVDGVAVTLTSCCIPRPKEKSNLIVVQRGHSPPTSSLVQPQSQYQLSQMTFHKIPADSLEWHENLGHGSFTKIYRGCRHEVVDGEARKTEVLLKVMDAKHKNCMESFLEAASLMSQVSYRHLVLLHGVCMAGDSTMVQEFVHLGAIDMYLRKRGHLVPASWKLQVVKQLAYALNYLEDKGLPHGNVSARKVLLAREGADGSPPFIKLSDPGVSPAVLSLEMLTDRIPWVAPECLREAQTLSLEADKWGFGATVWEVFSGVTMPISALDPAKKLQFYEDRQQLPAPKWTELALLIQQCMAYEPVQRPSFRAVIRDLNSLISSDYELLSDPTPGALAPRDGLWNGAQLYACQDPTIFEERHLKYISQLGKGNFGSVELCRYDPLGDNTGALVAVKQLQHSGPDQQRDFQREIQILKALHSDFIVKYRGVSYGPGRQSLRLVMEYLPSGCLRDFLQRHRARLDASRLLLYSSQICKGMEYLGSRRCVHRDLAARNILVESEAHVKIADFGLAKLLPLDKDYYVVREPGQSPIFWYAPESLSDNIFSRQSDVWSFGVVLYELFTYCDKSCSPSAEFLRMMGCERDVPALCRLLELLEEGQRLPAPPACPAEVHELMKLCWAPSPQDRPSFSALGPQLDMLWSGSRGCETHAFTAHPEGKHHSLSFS

[7] = target: Serine/threonine-protein kinase pim-1 (Homo sapiens, UniProt P11309)
Serine/threonine-protein kinase pim-1, sequence (P11309 whole entry): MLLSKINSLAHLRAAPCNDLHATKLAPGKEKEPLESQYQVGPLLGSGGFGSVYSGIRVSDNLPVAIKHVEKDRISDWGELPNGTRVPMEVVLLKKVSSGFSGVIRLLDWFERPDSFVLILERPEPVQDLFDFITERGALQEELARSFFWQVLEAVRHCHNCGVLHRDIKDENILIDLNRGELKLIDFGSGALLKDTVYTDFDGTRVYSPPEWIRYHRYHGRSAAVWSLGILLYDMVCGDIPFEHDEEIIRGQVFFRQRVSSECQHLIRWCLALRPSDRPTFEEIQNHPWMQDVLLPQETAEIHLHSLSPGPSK
Description: Inhibition of PIM-1 (unknown origin)

Row | SMILES | EC50 (MOLM-13) | further results
1 | NCCCCn1c2ccccc2c2c3[nH]ncc3c3c4ccccc4[nH]c3c21 | 2.7 µM | 
2 | CCCCCn1c2ccccc2c2c3[nH]ncc3c3c4ccccc4[nH]c3c21 | 15 µM | 
3 | CCN(CC)CCCn1c2ccccc2c2c3[nH]ncc3c3c4ccccc4[nH]c3c21 | > 4 µM | 
4 | OC[C@H]1O[C@@H](n2c3ccccc3c3c4cn[nH]c4c4c5ccccc5[nH]c4c32)[C@H](O)[C@@H](O)[C@@H]1O |  | IC50 (HCT-116): 11 µM
5 | CCCCn1c2ccccc2c2c3[nH]ncc3c3c4ccccc4[nH]c3c21 | > 5 µM | 
6 | CNCCCn1c2ccccc2c2c3cn[nH]c3c3c4ccccc4[nH]c3c21 |  | IC50 [1]: 0.316 µM; IC50 [2]: 0.009 µM; IC50 [3]: 0.0144 µM; IC50 [4]: 0.024 µM; IC50 [5]: 0.128 µM; IC50 [6]: 0.041 µM; IC50 [7]: 0.045 µM
7 | CN(C)CCCn1c2ccccc2c2c3[nH]ncc3c3c4ccccc4[nH]c3c21 | 3.8 µM | 
8 | OCCCCn1c2ccccc2c2c3[nH]ncc3c3c4ccccc4[nH]c3c21 | 4.1 µM | 
9 | CCN(CC)CCCCn1c2ccccc2c2c3[nH]ncc3c3c4ccccc4[nH]c3c21 | 4.3 µM | 
10 | NCCCn1c2ccccc2c2c3[nH]ncc3c3c4ccccc4[nH]c3c21 | > 40 µM | 
11 | OC[C@H]1O[C@@H](n2c3ccccc3c3c4[nH]ncc4c4c5ccccc5[nH]c4c32)[C@H](O)[C@@H](O)[C@@H]1O |  | IC50 (HCT-116): 12 µM
12 | CCCCCn1c2ccccc2c2c3cn[nH]c3c3c4ccccc4[nH]c3c21 | > 5 µM | 
